Measurements published in PubChem BioAssay (NCI).
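Compound exposure: 48 hours, 5 concentrations, 96-well plates. GI50 is the concentration that inhibits growth by half. TGI denotes the concentration required for complete inhibition of growth.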

Key:
Experiment in all cases: NCI anticancer screen, dose series, 48 h
[1] = test system: HS 578T breast
[2] = test system: HL-60(TB) leukemia
[3] = test system: RPMI-8226 leukemia
[4] = test system: UACC-257 melanoma
[5] = test system: SK-MEL-5 melanoma
[6] = test system: MOLT-4 leukemia
[7] = test system: U251 CNS
[8] = test system: MDA-MB-231 breast
[9] = test system: 786-0 renal
[10] = test system: K-562 leukemia
[11] = test system: MALME-3M melanoma
[12] = test system: A498 renal
[13] = test system: LOX IMVI melanoma
[14] = test system: SK-OV-3 ovarian
[15] = test system: COLO 205 colon
[16] = test system: SK-MEL-2 melanoma
[17] = test system: OVCAR-4 ovarian
[18] = test system: SNB-75 CNS
[19] = test system: UACC-62 melanoma
[20] = test system: OVCAR-8 ovarian
[21] = test system: SN12C renal
[22] = test system: MCF7 breast
[23] = test system: SF-295 CNS
[24] = test system: HCT-116 colon
[25] = test system: KM12 colon
[26] = test system: SNB-19 CNS
[27] = test system: SW-620 colon
[28] = test system: M14 melanoma
[29] = test system: NCI-H23 lung
[30] = test system: SF-268 CNS
[31] = test system: SK-MEL-28 melanoma
[32] = test system: SR leukemia
[33] = test system: HOP-62 NSCLC
[34] = test system: RXF 393 renal
[35] = test system: EKVX NSCLC
[36] = test system: HCC-2998 colon
[37] = test system: NCI-H522 lung
[38] = test system: HCT-15 colon
[39] = test system: CAKI-1 renal
[40] = test system: ACHN renal
[41] = test system: HT29 colon
[42] = test system: PC-3 prostate
[43] = test system: NCI-H460 lung
[44] = test system: OVCAR-3 ovarian
[45] = test system: TK-10 renal
[46] = test system: OVCAR-5 ovarian
[47] = test system: IGROV1 ovarian
[48] = test system: UO-31 renal
[49] = test system: DU-145 prostate
[50] = test system: MDA-MB-435
[51] = test system: A549 NSCLC
[52] = test system: HOP-92 NSCLC
[53] = test system: T-47D breast
[54] = test system: NCI-H226 lung
[55] = test system: NCI/ADR-RES ovarian
[56] = test system: SF-539 CNS
[57] = test system: BT-549 breast
[58] = test system: CCRF-CEM leukemia

SMILES: Fc1c[c-]c(-c2ccccn2)c(F)c1.Fc1c[c-]c(-c2ccccn2)c(F)c1.[Cl][Pt+].[Cl][Pt+].c1ccc([PH+](C[PH+](c2ccccc2)c2ccccc2)c2ccccc2)cc1
- GI50 [1]: 0.275 µM
- TGI [1]: 1.17 µM
- GI50 [2]: 0.271 µM
- TGI [2]: 0.813 µM
- GI50 [3]: 0.08 µM
- TGI [3]: 0.466 µM
- GI50 [4]: 0.235 µM
- TGI [4]: 0.815 µM
- GI50 [5]: 0.164 µM
- TGI [5]: 0.307 µM
- GI50 [6]: 0.328 µM
- GI50 [7]: 0.063 µM
- TGI [7]: 0.218 µM
- GI50 [8]: 0.139 µM
- TGI [8]: 0.373 µM
- GI50 [9]: 0.184 µM
- TGI [9]: 0.38 µM
- GI50 [10]: 0.0955 µM
- TGI [10]: > 100 µM
- GI50 [11]: 0.264 µM
- TGI [11]: 0.758 µM
- GI50 [12]: 0.164 µM
- TGI [12]: 0.461 µM
- GI50 [13]: 0.38 µM
- TGI [13]: 1.38 µM
- GI50 [14]: 0.33 µM
- TGI [14]: 0.91 µM
- GI50 [15]: 0.132 µM
- TGI [15]: 0.362 µM
- GI50 [16]: 0.193 µM
- TGI [16]: 0.479 µM
- GI50 [17]: 0.154 µM
- TGI [17]: 0.977 µM

SMILES: O/N=C1/COC(C(F)(F)F)(C(F)(F)F)C1
- TGI [18]: > 100 µM
- TGI [1]: > 100 µM
- TGI [19]: > 100 µM
- TGI [20]: > 100 µM
- TGI [21]: > 100 µM
- TGI [22]: > 100 µM
- TGI [23]: > 100 µM
- TGI [24]: > 100 µM
- TGI [25]: > 100 µM
- TGI [3]: > 100 µM
- TGI [26]: > 100 µM
- TGI [27]: > 100 µM
- TGI [28]: > 100 µM
- TGI [29]: > 100 µM
- TGI [4]: > 100 µM
- TGI [30]: > 100 µM
- TGI [5]: > 100 µM
- TGI [31]: > 100 µM
- TGI [6]: > 100 µM
- TGI [32]: > 100 µM
- TGI [33]: > 100 µM
- TGI [7]: > 100 µM
- TGI [8]: > 100 µM
- TGI [34]: > 100 µM
- TGI [35]: > 100 µM
- TGI [36]: > 100 µM
- TGI [37]: > 100 µM
- TGI [38]: > 100 µM
- TGI [9]: > 100 µM
- TGI [39]: > 100 µM
- TGI [40]: > 100 µM
- TGI [41]: > 100 µM
- TGI [42]: > 100 µM
- TGI [11]: > 100 µM
- TGI [43]: > 100 µM
- TGI [44]: > 100 µM
- TGI [12]: > 100 µM
- TGI [45]: > 100 µM
- TGI [46]: > 100 µM
- TGI [47]: > 100 µM
- TGI [13]: > 100 µM
- TGI [48]: > 100 µM
- TGI [14]: > 100 µM
- TGI [49]: > 100 µM
- TGI [50]: > 100 µM
- TGI [15]: > 100 µM
- TGI [51]: > 100 µM
- TGI [52]: > 100 µM
- TGI [16]: > 100 µM
- TGI [17]: > 100 µM
- TGI [53]: > 100 µM
- TGI [54]: > 100 µM
- TGI [55]: > 100 µM
- TGI [56]: > 100 µM

SMILES: O=C(OCc1ccc2cccc(O)c2n1)N1CCN(C(=O)c2cc3cc(F)ccc3[nH]2)CC1
- GI50 [18]: 1.02 µM
- TGI [18]: 2.24 µM
- GI50 [1]: 1.42 µM
- TGI [1]: 5.72 µM
- GI50 [19]: 1.17 µM
- TGI [19]: 2.43 µM
- GI50 [20]: 1.01 µM
- TGI [20]: 2.47 µM
- GI50 [21]: 1.21 µM
- TGI [21]: 2.49 µM
- GI50 [2]: 1.31 µM
- TGI [2]: 3.47 µM
- GI50 [23]: 5.69 µM
- TGI [23]: 18.6 µM
- GI50 [24]: 0.357 µM
- TGI [24]: 1.32 µM
- GI50 [25]: 1.61 µM
- TGI [25]: 3.46 µM
- GI50 [3]: 0.251 µM
- TGI [3]: 0.787 µM
- GI50 [57]: 1 µM
- TGI [57]: 2.21 µM
- GI50 [26]: 1.55 µM
- TGI [26]: 2.92 µM
- GI50 [27]: 0.42 µM
- TGI [27]: 1.91 µM
- GI50 [28]: 1.13 µM
- TGI [28]: 2.5 µM
- GI50 [29]: 1.62 µM
- TGI [29]: 3.45 µM
- GI50 [4]: 1.46 µM
- TGI [4]: 2.89 µM
- GI50 [30]: 1.45 µM
- TGI [30]: 3.04 µM
- GI50 [5]: 1.69 µM
- TGI [5]: 3.07 µM
- GI50 [31]: 1.68 µM
- TGI [31]: 3.05 µM
- GI50 [6]: 0.334 µM
- TGI [6]: 1.37 µM
- GI50 [32]: 0.272 µM
- TGI [32]: 1.6 µM
- GI50 [33]: 1.37 µM
- TGI [33]: 3.16 µM
- GI50 [7]: 1.41 µM
- TGI [7]: 2.74 µM
- GI50 [8]: 0.966 µM
- TGI [8]: 2.23 µM
- GI50 [34]: 0.981 µM
- TGI [34]: 2.17 µM
- GI50 [35]: 1.4 µM
- TGI [35]: 2.71 µM
- GI50 [36]: 1.69 µM
- TGI [36]: 3.26 µM
- GI50 [37]: 1.02 µM
- TGI [37]: 2.47 µM
- GI50 [38]: 0.452 µM
- TGI [38]: 1.8 µM
- GI50 [9]: 1.42 µM
- TGI [9]: 2.82 µM
- GI50 [39]: 0.354 µM
- TGI [39]: 1.66 µM
- GI50 [40]: 0.615 µM
- TGI [40]: 1.92 µM
- GI50 [41]: 1.14 µM
- TGI [41]: 3.05 µM
- GI50 [42]: 0.513 µM
- TGI [42]: 2.02 µM
- GI50 [10]: 0.435 µM
- TGI [10]: 2.4 µM
- GI50 [11]: 1.46 µM
- TGI [11]: 2.78 µM
- GI50 [43]: 1.34 µM
- TGI [43]: 3.64 µM
- GI50 [44]: 0.46 µM
- TGI [44]: 1.77 µM
- GI50 [12]: 1.71 µM
- TGI [12]: 3.25 µM
- GI50 [45]: 1.77 µM
- TGI [45]: 3.16 µM
- GI50 [46]: 1.7 µM
- TGI [46]: 3.16 µM
- GI50 [47]: 0.403 µM
- TGI [47]: 1.64 µM
- GI50 [13]: 1.36 µM
- TGI [13]: 2.75 µM
- GI50 [48]: 0.358 µM
- TGI [48]: 1.93 µM
- GI50 [14]: 2.77 µM
- TGI [14]: 11.9 µM
- GI50 [49]: 1.28 µM
- TGI [49]: 2.67 µM
- GI50 [50]: 1.19 µM
- TGI [50]: 2.8 µM
- GI50 [15]: 0.622 µM
- TGI [15]: 2.07 µM
- GI50 [51]: 1.62 µM
- TGI [51]: 3.35 µM
- GI50 [52]: 0.383 µM
- TGI [52]: 1.94 µM
- GI50 [16]: 1.35 µM
- TGI [16]: 2.78 µM
- GI50 [17]: 1.35 µM
- TGI [17]: 2.74 µM
- GI50 [58]: 0.242 µM
- TGI [58]: 0.995 µM
- GI50 [55]: 1.76 µM
- TGI [55]: 6.07 µM
- GI50 [56]: 1.15 µM
- TGI [56]: 2.36 µM
